# Measurements as given in PMC5218480 (PLoS ONE, 2017).
# Tested on: MV-4-11 cells
# Experiment: Gene expression microarray analysis (Affymetrix PrimeView) and GSEA
# Assay type: cell-based, human
# Set-up: RFU PODN (11730768_x_at) / Fold change /veh PODN (11730768_x_at) / RFU LINC00158 (11744669_a_at) / Fold change /veh LINC00158 (11744669_a_at) / RFU DUSP10 (11751237_a_at) / Fold change /veh DUSP10 (11751237_a_at) / RFU ID3 (11757404_x_at) / Fold change /veh ID3 (11757404_x_at) / RFU PLEKHG5 (11737974_s_at) / Fold change /veh PLEKHG5 (11737974_s_at) / RFU LRRC4B (11730491_at) / Fold change /veh LRRC4B (11730491_at) / RFU GIMAP4 (11747438_a_at) / Fold change /veh GIMAP4 (11747438_a_at) / RFU KRT8 (11758183_x_at) / Fold change /veh KRT8 (11758183_x_at) / RFU CNN1 (11734310_a_at) / Fold change /veh CNN1 (11734310_a_at) / RFU VPS37D (11726825_at) / Fold change /veh VPS37D (11726825_at) / RFU C10orf10 (11716522_x_at) / Fold change /veh C10orf10 (11716522_x_at) / RFU KIR2DL2 /// KIR2DL4 /// KIR2DL5A /// KIR2DL5B /// KIR2DS1 /// KIR2DS2 /// KIR2DS3 /// KIR2DS4 /// KIR3DL3 /// KIR3DL3 /// KIR3DS1 (11738374_at) / Fold change /veh KIR2DL2 /// KIR2DL4 /// KIR2DL5A /// KIR2DL5B /// KIR2DS1 /// KIR2DS2 /// KIR2DS3 /// KIR2DS4 /// KIR3DL3 /// KIR3DL3 /// KIR3DS1 (11738374_at) / RFU C1QL1 (11718748_at) / Fold change /veh C1QL1 (11718748_at) / RFU TMPRSS4 (11747572_a_at) / Fold change /veh TMPRSS4 (11747572_a_at) / RFU HAMP (11756126_x_at) / Fold change /veh HAMP (11756126_x_at) / RFU RNFT2 (11725882_a_at) / Fold change /veh RNFT2 (11725882_a_at) / RFU NR4A2 (11747474_a_at) / Fold change /veh NR4A2 (11747474_a_at) / RFU ABCC12 (11746883_a_at) / Fold change /veh ABCC12 (11746883_a_at) / RFU TMEM136 (11760407_x_at) / Fold change /veh TMEM136 (11760407_x_at) / RFU CLDN22 /// WWC2 (11732394_at) / Fold change /veh CLDN22 /// WWC2 (11732394_at) / RFU HLA-DPB1 (11760878_x_at) / Fold change /veh HLA-DPB1 (11760878_x_at) / RFU SPINT1 (11716480_a_at) / Fold change /veh SPINT1 (11716480_a_at) / RFU GAP43 (11754022_s_at) / Fold change /veh GAP43 (11754022_s_at) / RFU A4GNT (11735810_at) / Fold change /veh A4GNT (11735810_at) / RFU PRB3 (11715151_x_at) / Fold change /veh PRB3 (11715151_x_at) / RFU TUBB4B (11761932_at) / Fold change /veh TUBB4B (11761932_at) / RFU CAPN14 (11732068_a_at) / Fold change /veh CAPN14 (11732068_a_at) / RFU TMCC2 (11721928_a_at) / Fold change /veh TMCC2 (11721928_a_at) / RFU IRGQ (11745062_a_at) / Fold change /veh IRGQ (11745062_a_at) / RFU FAM174B (11720279_a_at) / Fold change /veh FAM174B (11720279_a_at) / RFU TMPRSS4 (11748680_a_at) / Fold change /veh TMPRSS4 (11748680_a_at) / RFU FAM212B (11763350_a_at) / Fold change /veh FAM212B (11763350_a_at) / RFU PLEKHG5 (11743358_a_at) / Fold change /veh PLEKHG5 (11743358_a_at) / RFU ZSCAN30 (11745921_a_at) / Fold change /veh ZSCAN30 (11745921_a_at) / RFU CMKLR1 (11741424_a_at) / Fold change /veh CMKLR1 (11741424_a_at) / RFU LOC101060620 /// MAPK8IP1 (11723275_at) / Fold change /veh LOC101060620 /// MAPK8IP1 (11723275_at) / RFU SPTSSB (11747773_x_at) / Fold change /veh SPTSSB (11747773_x_at) / RFU PRSS12 (11739890_at) / Fold change /veh PRSS12 (11739890_at) / RFU BIN1 (11741810_x_at) / Fold change /veh BIN1 (11741810_x_at) / RFU WNT11 (11732464_a_at) / Fold change /veh WNT11 (11732464_a_at) / RFU C10orf10 (11716521_a_at) / Fold change /veh C10orf10 (11716521_a_at) / RFU C5orf56 (11738089_at) / Fold change /veh C5orf56 (11738089_at) / RFU CYB561 (11721691_x_at) / Fold change /veh CYB561 (11721691_x_at) / RFU ANKRD19P (11752326_a_at) / Fold change /veh ANKRD19P (11752326_a_at) / RFU OR2T12 /// OR2T33 /// OR2T8 (11738714_s_at) / Fold change /veh OR2T12 /// OR2T33 /// OR2T8 (11738714_s_at) / RFU VCAN (11748164_a_at) / Fold change /veh VCAN (11748164_a_at) / RFU JSRP1 (11732532_at) / Fold change /veh JSRP1 (11732532_at) / RFU KRTAP10-11 (11738290_x_at) / Fold change /veh KRTAP10-11 (11738290_x_at) / RFU MYO3A (11730013_a_at) / Fold change /veh MYO3A (11730013_a_at) / RFU EBF3 (11725865_a_at) / Fold change /veh EBF3 (11725865_a_at) / RFU CAMK2N1 (11719241_x_at) / Fold change /veh CAMK2N1 (11719241_x_at) / RFU C5orf56 (11738088_a_at) / Fold change /veh C5orf56 (11738088_a_at) / RFU OLFML3 (11715873_a_at) / Fold change /veh OLFML3 (11715873_a_at) / RFU LOC100653217 /// NTM (11731650_a_at) / Fold change /veh LOC100653217 /// NTM (11731650_a_at) / RFU MAPK11 (11762145_a_at) / Fold change /veh MAPK11 (11762145_a_at) / RFU FIZ1 (11724087_x_at) / Fold change /veh FIZ1 (11724087_x_at) / RFU OASL (11726364_x_at) / Fold change /veh OASL (11726364_x_at) / RFU SOX15 (11748057_x_at) / Fold change /veh SOX15 (11748057_x_at) / RFU CD79A (11719716_a_at) / Fold change /veh CD79A (11719716_a_at) / RFU HIST1H1D (11736915_at) / Fold change /veh HIST1H1D (11736915_at) / RFU CASKIN2 (11723855_a_at) / Fold change /veh CASKIN2 (11723855_a_at) / RFU LOC730098 (11760151_x_at) / Fold change /veh LOC730098 (11760151_x_at) / RFU OR4N2 (11742367_at) / Fold change /veh OR4N2 (11742367_at) / RFU PRRT2 (11749266_a_at) / Fold change /veh PRRT2 (11749266_a_at) / RFU SNX32 (11753110_a_at) / Fold change /veh SNX32 (11753110_a_at) / RFU CDHR5 (11726645_a_at) / Fold change /veh CDHR5 (11726645_a_at) / RFU RCAN1 (11760418_a_at) / Fold change /veh RCAN1 (11760418_a_at) / RFU FAM167A (11723789_a_at) / Fold change /veh FAM167A (11723789_a_at) / RFU FAM26E (11764081_at) / Fold change /veh FAM26E (11764081_at) / RFU ISYNA1 (11749810_s_at) / Fold change /veh ISYNA1 (11749810_s_at) / RFU ACY1 (11761880_at) / Fold change /veh ACY1 (11761880_at) / RFU 11764098_at / Fold change /veh 11764098_at / RFU SAMD14 (11745864_x_at) / Fold change /veh SAMD14 (11745864_x_at) / RFU NPB (11741838_a_at) / Fold change /veh NPB (11741838_a_at) / RFU TMPRSS6 (11731388_a_at) / Fold change /veh TMPRSS6 (11731388_a_at) / RFU KRTAP10-2 (11738614_at) / Fold change /veh KRTAP10-2 (11738614_at) / RFU ARHGAP8 /// PRR5-ARHGAP8 (11727945_x_at) / Fold change /veh ARHGAP8 /// PRR5-ARHGAP8 (11727945_x_at) / RFU KRTAP5-7 /// NADSYN1 (11734609_at) / Fold change /veh KRTAP5-7 /// NADSYN1 (11734609_at) / RFU RASL12 (11751679_a_at) / Fold change /veh RASL12 (11751679_a_at) / RFU CDKN2B (11736163_a_at) / Fold change /veh CDKN2B (11736163_a_at) / RFU PRF1 (11729649_at) / Fold change /veh PRF1 (11729649_at) / RFU, ZNF638 /// ZNF638-IT1 / Fold change vs veh, ZNF638 /// ZNF638-IT1 / RFU, PANK3 / Fold change vs veh, PANK3 / RFU, SH3YL1 / Fold change vs veh, SH3YL1 / RFU, ZEB2 / Fold change vs veh, ZEB2 / RFU, NRIP1 / Fold change vs veh, NRIP1 / RFU, PTTG1IP / Fold change vs veh, PTTG1IP / RFU, CAPN2 / Fold change vs veh, CAPN2 / RFU, MED14 / Fold change vs veh, MED14 / RFU, SNORA58 / Fold change vs veh, SNORA58 / RFU, C1orf63 / Fold change vs veh, C1orf63 / RFU, LRRFIP1 / Fold change vs veh, LRRFIP1 / RFU, NDUFAF7 / Fold change vs veh, NDUFAF7 / RFU, SLC12A2 / Fold change vs veh, SLC12A2 / RFU, IBTK / Fold change vs veh, IBTK / RFU, ESF1 / Fold change vs veh, ESF1 / Fold change vs veh, TMEM50B / RFU, TAOK1 / Fold change vs veh, TAOK1 / RFU, ACBD3 / Fold change vs veh, ACBD3 / RFU, TMA16 / Fold change vs veh, TMA16 / RFU, RWDD3 / Fold change vs veh, RWDD3 / RFU, BCAT1 / Fold change vs veh, BCAT1 / RFU, EDEM3 / Fold change vs veh, EDEM3 / RFU, TMEM33 / Fold change vs veh, TMEM33 / RFU, WDR75 / Fold change vs veh, WDR75 / RFU, AHCTF1 / Fold change vs veh, AHCTF1 / RFU, TFRC / Fold change vs veh, TFRC / RFU, ZDHHC17 / Fold change vs veh, ZDHHC17 / RFU, NOM1 / Fold change vs veh, NOM1 / RFU, ARL8B / Fold change vs veh, ARL8B / RFU, ZBTB11 / Fold change vs veh, ZBTB11 / RFU, TAMM41 / Fold change vs veh, TAMM41 / RFU, KIAA1704 /// LOC100996395 / Fold change vs veh, KIAA1704 /// LOC100996395 / RFU, ING1 / Fold change vs veh, ING1 / RFU, TRMT61B / Fold change vs veh, TRMT61B / RFU, FUBP3 / Fold change vs veh, FUBP3 / RFU, TP53 / Fold change vs veh, TP53 / RFU, TNKS2 / Fold change vs veh, TNKS2 / RFU, ZFP14 / Fold change vs veh, ZFP14 / RFU, ACTR2 / Fold change vs veh, ACTR2 / RFU, PPP3R1 / Fold change vs veh, PPP3R1 / RFU, PIK3R1 / Fold change vs veh, PIK3R1 / RFU, HNRNPA1 / Fold change vs veh, HNRNPA1 / RFU, RNF170 / Fold change vs veh, RNF170 / RFU, ZNF28 / Fold change vs veh, ZNF28 / RFU, RNGTT / Fold change vs veh, RNGTT / RFU, OGT / Fold change vs veh, OGT / RFU, BRD1 / Fold change vs veh, BRD1 / RFU, MARS / Fold change vs veh, MARS / RFU, ZNF655 / Fold change vs veh, ZNF655 / RFU, FAHD1 / Fold change vs veh, FAHD1 / RFU, BDP1 / Fold change vs veh, BDP1 / RFU, LRRCC1 / Fold change vs veh, LRRCC1 / RFU, ARID1A / Fold change vs veh, ARID1A / RFU, ZNF146 / Fold change vs veh, ZNF146 / RFU, ZNF330 / Fold change vs veh, ZNF330 / RFU, GPN3 / Fold change vs veh, GPN3 / RFU, C9orf123 / Fold change vs veh, C9orf123 / RFU, N4BP2L2 / Fold change vs veh, N4BP2L2 / RFU, ARFIP1 / Fold change vs veh, ARFIP1 / RFU, FAM179B / Fold change vs veh, FAM179B / RFU, BCL10 / Fold change vs veh, BCL10 / RFU, UHRF1BP1L / Fold change vs veh, UHRF1BP1L / RFU, BET1 / Fold change vs veh, BET1 / RFU, CNOT2 / Fold change vs veh, CNOT2 / RFU, ZNF268 / Fold change vs veh, ZNF268 / Fold change vs veh, ZNF507 / RFU, DGCR2 / Fold change vs veh, DGCR2 / RFU, WDSUB1 / Fold change vs veh, WDSUB1 / Fold change vs veh, HSP90B1 /// MIR3652 / RFU, ADSS / Fold change vs veh, ADSS / RFU, GK / Fold change vs veh, GK / RFU, ZNF148 / Fold change vs veh, ZNF148 / RFU, TAF9 / Fold change vs veh, TAF9 / RFU, SLC1A5 / Fold change vs veh, SLC1A5 / RFU, SLMO2 / Fold change vs veh, SLMO2 / RFU, ABCC4 / Fold change vs veh, ABCC4 / RFU, LOC101060439 /// RAP1B / Fold change vs veh, LOC101060439 /// RAP1B / RFU, RFX7 / Fold change vs veh, RFX7 / RFU, GTPBP10 / Fold change vs veh, GTPBP10 / RFU, CNEP1R1 / Fold change vs veh, CNEP1R1 / RFU, BIVM-ERCC5 /// ERCC5 / Fold change vs veh, BIVM-ERCC5 /// ERCC5 / RFU, ILF3 / Fold change vs veh, ILF3 / RFU 11762660_at / Fold change /veh 11762660_at / RFU VCAN (11757783_s_at) / Fold change /veh VCAN (11757783_s_at) / RFU DDX43 (11728927_at) / Fold change /veh DDX43 (11728927_at) / RFU KRT8 (11758188_x_at) / Fold change /veh KRT8 (11758188_x_at) / RFU NKD1 (11759106_at) / Fold change /veh NKD1 (11759106_at) / RFU SRD5A1 (11742802_a_at) / Fold change /veh SRD5A1 (11742802_a_at) / RFU TPSAB1 /// TPSB2 (11721975_s_at) / Fold change /veh TPSAB1 /// TPSB2 (11721975_s_at) / RFU GSTM3 (11746129_a_at) / Fold change /veh GSTM3 (11746129_a_at) / RFU IL23R (11737362_x_at) / Fold change /veh IL23R (11737362_x_at) / RFU TMEM51 (11727254_a_at) / Fold change /veh TMEM51 (11727254_a_at) / RFU PIWIL2 (11732686_x_at) / Fold change /veh PIWIL2 (11732686_x_at) / RFU ORM1 (11744905_x_at) / Fold change /veh ORM1 (11744905_x_at) / RFU CCDC152 (11743942_at) / Fold change /veh CCDC152 (11743942_at) / RFU ECM1 (11717891_a_at) / Fold change /veh ECM1 (11717891_a_at) / RFU IL23R (11748794_a_at) / Fold change /veh IL23R (11748794_a_at) / RFU TNFAIP8L3 (11732012_x_at) / Fold change /veh TNFAIP8L3 (11732012_x_at) / RFU MBOAT4 (11741988_at) / Fold change /veh MBOAT4 (11741988_at) / RFU 11764193_at / Fold change /veh 11764193_at / RFU TMEM53 (11763286_at) / Fold change /veh TMEM53 (11763286_at) / RFU MAGEB2 (11727129_at) / Fold change /veh MAGEB2 (11727129_at) / RFU TMEM200A (11744735_a_at) / Fold change /veh TMEM200A (11744735_a_at) / RFU CCDC152 (11751479_a_at) / Fold change /veh CCDC152 (11751479_a_at) / RFU FAM211A (11726209_a_at) / Fold change /veh FAM211A (11726209_a_at) / RFU RGS16 (11746705_a_at) / Fold change /veh RGS16 (11746705_a_at) / RFU VCAN (11755009_s_at) / Fold change /veh VCAN (11755009_s_at) / RFU RHOB (11743442_s_at) / Fold change /veh RHOB (11743442_s_at) / RFU RGS16 (11720943_a_at) / Fold change /veh RGS16 (11720943_a_at) / RFU RGS16 (11720944_at) / Fold change /veh RGS16 (11720944_at) / RFU, VPS4B / Fold change vs veh, VPS4B / RFU, CREB1 / Fold change vs veh, CREB1 / RFU, DNAJC13 / Fold change vs veh, DNAJC13 / RFU, GNAQ / Fold change vs veh, GNAQ / RFU, CDK5R1 / Fold change vs veh, CDK5R1 / RFU, ZRANB3 / Fold change vs veh, ZRANB3 / RFU, CUL4A / Fold change vs veh, CUL4A / RFU, CCNY / Fold change vs veh, CCNY / RFU, UFL1 / Fold change vs veh, UFL1 / RFU, COG3 / Fold change vs veh, COG3 / RFU, DIAPH2 / Fold change vs veh, DIAPH2 / RFU, SKA2 / Fold change vs veh, SKA2 / RFU, AFF3 / Fold change vs veh, AFF3 / RFU, LMF1 / Fold change vs veh, LMF1 / RFU, IPO11 / Fold change vs veh, IPO11 / RFU, DFFB / Fold change vs veh, DFFB / RFU, FOXP1 / Fold change vs veh, FOXP1 / RFU, CARD8 / Fold change vs veh, CARD8 / RFU, STRN3 / Fold change vs veh, STRN3 / RFU, ADK / Fold change vs veh, ADK / RFU, RASSF2 / Fold change vs veh, RASSF2 / RFU, WIPF1 / Fold change vs veh, WIPF1 / RFU, LARP1B / Fold change vs veh, LARP1B / RFU, RASA1 / Fold change vs veh, RASA1 / RFU, RB1 / Fold change vs veh, RB1 / RFU, PPFIA1 / Fold change vs veh, PPFIA1 / RFU, MAT2A / Fold change vs veh, MAT2A / RFU, CCT5 / Fold change vs veh, CCT5 / RFU, WDR92 / Fold change vs veh, WDR92 / RFU, CUX1 / Fold change vs veh, CUX1 / RFU, TTC7A / Fold change vs veh, TTC7A / RFU, TMEM135 / Fold change vs veh, TMEM135 / RFU, DEPTOR / Fold change vs veh, DEPTOR / RFU, CPM / Fold change vs veh, CPM / RFU, DNAJB6 / Fold change vs veh, DNAJB6 / RFU, CACNA2D3 / Fold change vs veh, CACNA2D3 / RFU, DTX4 / Fold change vs veh, DTX4 / RFU, TFCP2 / Fold change vs veh, TFCP2 / RFU, GMCL1 /// GMCL1P1 / Fold change vs veh, GMCL1 /// GMCL1P1 / RFU, AEBP2 / Fold change vs veh, AEBP2 / RFU, SNHG1 /// SNORD22 /// SNORD25 /// SNORD26 /// SNORD27 /// SNORD28 /// SNORD29 /// SNORD31 / Fold change vs veh, SNHG1 /// SNORD22 /// SNORD25 /// SNORD26 /// SNORD27 /// SNORD28 /// SNORD29 /// SNORD31 / Fold change (Aza/veh), C12orf56 (ProbeSet 11735607_a_at) / Fold change (ACY-1035/veh), C12orf56 (ProbeSet 11735607_a_at) / Fold change (Aza/veh), FGFR1OP (ProbeSet 11751329_s_at) / Fold change (ACY-1035/veh), FGFR1OP (ProbeSet 11751329_s_at) / Fold change (Aza/veh), VPS36 (ProbeSet 11739960_a_at) / Fold change (ACY-1035/veh), VPS36 (ProbeSet 11739960_a_at) / RFU SYPL1 (11715823_x_at) / Fold change /veh SYPL1 (11715823_x_at) / RFU IGFBP7 (11715501_s_at) / Fold change /veh IGFBP7 (11715501_s_at) / RFU REEP3 (11722064_at) / Fold change /veh REEP3 (11722064_at) / RFU IGLL1 (11728026_x_at) / Fold change /veh IGLL1 (11728026_x_at): dose or concentration left out as unconfirmed
# Settings: MV-4-11 cells, 48 hours
smiles,measurement,value
Nc1ncn([C@@H]2O[C@H](CO)[C@@H](O)[C@H]2O)c(=O)n1 [azacitidine],Fold change /veh TPSAB1 /// TPSB2 (11721975_s_at),1.21
